Results as given in US20120277265A1, “NOVEL POLYQUINOLINE DERIVATIVES AND THE THERAPEUTIC USE THEREOF” (CENTRE NATIONAL DE LA RECHERCHE SCIENTIFIQUE (C.N.R.S.), priority 2005, published 2012).

Legend:
[1] = UV-visible spectrophotometric titration with CuCl2 (metal/ligand stoichiometry); format: binding; settings: 15 μM ligand; Tris-HCl buffer pH 7.4/organic solvent, per ligand as in Table 3 column Solvent
Experimental: (§1) An organic solvent (CH3OH, dioxane or DMSO) was added in order to achieve good solubility of the ligands and metal complexes in the concentrations used in these experiments. Exact proportions of the organic solvent/buffer mixture are specified for each UV-visible characterisation of the different ligands or metal complexes.
(§2) Aliquot portions of concentrated CuCl2 or ZnCl2 solutions (M) are added to a 15 μM ligand solution so as to induce only negligible variations in volume. After each addition, changes in absorption spectra are observed immediately and are consistent between two additions, which corresponds to a rapid complexing process. The exact absorption values relating to each ligand and the copper(II) or zinc(II) complexes thereof are detailed hereinafter in the Experimental part (in the Synthesis part for ligands and hereinafter for the metal complexes).
(§3) The stoichiometry of the different ligands (L) for Cu(II) or ZN(II) have therefore been determined spectrophotometrically by metal ion titration. In this example, for an M/L ratio increasing from 0 to 1, π→π* with transition, centred at 251 nm for the free ligand, is shifted to a lower energy with a concomitant appearance of an absorption band in the visible region of the spectrum (λmax to 383 nm), which is probably the result of an MLCT transition. For greater M/L ratios, no additional change in the UV-visible absorption spectra is observed.

[2] = UV-visible spectrophotometric titration with ZnCl2 (metal/ligand stoichiometry); format: binding; settings: 15 μM ligand; Tris-HCl buffer pH 7.4/organic solvent, per ligand as in Table 3 column Solvent
Experimental: as §1, §2, §3

[3] = Competition reaction between ligand (Ls), ZnCl2 and competing chelator (Lc), UV-visible; affinity constants; format: binding; settings: Ls/ZnCl2/Lc 1/1/1 at 15 μM; solvent per ligand as in Table 3
Experimental: An organic solvent (CH3OH, dioxane or DMSO) was added in order to achieve good solubility of all the ligands and metal complexes in the concentrations used in these experiments.
As the concentration [MLs]=x % of C is measured on the UV-visible spectra, the concentrations [Ls]=(1−x) % of C, [MLc]=(1−x) % of C and [Lc]=x % of C can be deduced therefrom and:
In these conditions, [MLs]=[MLc]; [MLs]+[Lc]=Y, y≧50 and:
When log Ks 6, these equations are not used since the percentages of metal ion which is free in the solution or chelated by the solvent or the buffer are not negligible.

[4] = target: T1, Aβ1-42 (Homo sapiens, UniProt P05067); assay: Inhibition of the precipitation of Aβ1-42 by the addition of ligand (Micro BCA assay of soluble/aggregated peptide); format: biochemical; settings: Aβ1-42 5 μM, pH 7.4; for CuCl2 % soluble Aβ: 20 μM CuCl2, 1 h 37° C. then 1 h with 200 μM ligand; for FeCl3 % soluble Aβ: 20 μM FeCl3, 1 h 37° C. then 1 h with 200 μM ligand; for ZnCl2 % soluble Aβ: 20 μM ZnCl2, 1 h 37° C. then 1 h with 200 μM ligand; for without metal % soluble Aβ: no metal salt, 1 h 37° C. then 1 h with 200 μM ligand
T1 construct: The β-amyloid peptide Aβ1-42 (Aβ1-42) was synthesised, purified (to a purity greater than 95%); made in house; host or cells: chemical peptide synthesis (no expression host)
T1 sequence (P05067 672-713): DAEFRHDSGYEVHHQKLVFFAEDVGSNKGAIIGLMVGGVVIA
Experimental: After a further hour of incubation, the reaction mixture is centrifuged.
Before use, the water [of Milli-Q Millipore quality] and all buffer solutions were treated on Chelex-100 resin (Biorad) (5 mg/ml) and filtered through 0.2 μm filters (Whatman) to remove potential traces of metal ions or particles.
Working solutions of the peptide were prepared by solubilising 1 mg of lyophilised peptide in 500 μl of water and 500 μl of an aqueous NaOH solution pH=12.0, while stirring in a Thermomixer Comfort (Eppendorf). The peptide preparations are subsequently centrifuged for 10 minutes at 9,000 rpm and the supernatant is used as an “Aβ stock” solution. The concentration of peptide in the “Aβ stock” is determined immediately by colorimetric assay using a Micro BCA Protein Assays kit (Pierce) from standard ranges produced using known amounts of bovine serum albumin (BSA) then the Aβ1-42 peptide solution is aliquoted and frozen rapidly in liquid nitrogen prior to being stored at −20° C. until being used.
Salts are generated by adding one hydrochloric acid equivalent per nitrogen group equivalent of the ligand dissolved in DMSO. After evaporation of the solvent, these salts are dissolved at the desired concentration with DMSO and kept at −20° C. until they are used.
The protocol was established from works by: C. S. Atwood et al., J. Neurochem. […] The final concentrations are given. 500 μl of Aβ1-42 (5 μM is set to aggregate in 20 mM Tris-HCl buffer containing 150 mM NaCl (pH=7.4) for 1 hour at 37° C. while stirring at 1,400 rpm in the absence or presence of metal ions: CuCl2, ZnCl2 or FeCl3 (20 μM). Then 50 pi of ligand to be tested (200 μM) dissolved in DMSO are added and the samples are incubated for 1 further hour at 37° C. while stirring at 1,400 rpm. The samples without ligand also receive 50 μl of DMSO. The samples (final volume=550 μ) are subsequently centrifuged for 20 min at 9,000 rpm, and 500 μl of supernatant are removed. The tube containing the precipitation pellet then receives 450 μl of assay buffer/DMSO mixture (91/9, v/v). […] Quantification is carried out on the basis of standard BSA ranges. The amounts of Aβ1-42 actually contained in the pellet and the supernatant are obtained after a correction due to the presence of a residual portion of supernatant in the pellet-containing fraction.
For the control experiments with derivatives comprising a single quinoline residue, […] of ligand were added because complexes of type L2Cu are conventionally used in these cases.

[5] = Hydrogen peroxide produced by Aβ1-42 in the presence of CuCl2, ascorbate, air and ligand (Amplex Red H2O2/HRP); format: biochemical; settings: ligand 1 eq/Cu(II) (0.4 μM); CuCl2 0.4 μM, ascorbate 10 μM, air
Experimental: (§4) FIG. 11: Variation in H2O2 production by copper complexes of Aβ1-42 peptide as a function of the Cu(II)/Aβ stoichiometry. Experiments are carried out for 5 minutes in a sodium phosphate buffer (pH=7.4) in the presence 0.4 μM CuCl2, 10 μM ascorbate and air with or without 0.4 μM of 3 or 7. The H2O2 released is quantified by means of an Amplex-Red H2O2/HRP Assay kit.
(§5) The final concentrations are given. The reactions were carried out in the dark in mM sodium phosphate buffer (pH=7.4). Aβ1-42 (0.2 μM) and CuCl2 (0.4 μM) were pre-incubated for 1 hour at 37° C. while stirring at 1,400 rpm in 375 μl of buffer. Then 2 μl of a solution of ligand to be investigated (0.2; 0.4 or 0.8 μM) in DMSO were added. After incubation for a further hour, 2 μl of an aqueous sodium ascorbate solution (10 μM) were added and incubation was continued for 5 min while stirring. The amount of H2O2 produced is then quantified using an Amplex Red H2O2/HRP Assay Kit (Molecular Probes) while adding a volume of assay reagent to the samples, then incubating them for 1 hour at 37° C. while stirring at 500 rpm. […] Quantification is carried out on the basis of standard curves obtained with known amounts of H2O2.
(§6) The figures in the tables correspond to the amount of H2O2 (expressed in nanomoles) added using an Amplex Red H2O2/HRP Assay kit.

[6] = target: T2, copper complexes of Aβ1-42 peptide (Homo sapiens, UniProt P05067); assay: as above; format: biochemical; settings: ligand 1 eq/Cu(II) (0.4 μM); CuCl2 0.4 μM, ascorbate 10 μM, air
T2 construct: The β-amyloid peptide Aβ1-42 (Aβ1-42) was synthesised, purified (to a purity greater than 95%); made in house; host or cells: chemical peptide synthesis (no expression host)
T2 sequence (P05067 672-713 limits assumed, one chain of several): as the sequence (P05067 672-713) above
Experimental: as §4, §5, §6

[7] = Determination of log D7.4 (1-octanol / Tris-HCl buffer); format: physicochemical; settings: 1-octanol / 20 mM Tris-HCl buffer containing 150 mM NaCl (pH = 7.4) (1/1, v/v)
Experimental: The ligand (2.0 mg) is dissolved in 2 ml of 1-octanol then 2 ml of 20 mM Tris-HCl buffer, pH=7.4 containing 150 mM NaCl are added. After mixing in a vortex for 3 min at ambient temperature, followed by centrifugation for 5 min at 9,000 rpm, the concentration of the ligand in each phase is determined by UV-visible spectrophotometry. The 1-octanol fractions are thus redivided until reproducible values of coefficient of division of obtained. This coefficient is expressed as the decimal logarithm of [(the concentration of ligand contained in the 1-octanol phase)/(the concentration of ligand contained in the buffered aqueous phase)]=log D7.4. Measurements were taken three times.

[8] = Competition reaction between ligand (Ls), CuCl2 and competing chelator (Lc), UV-visible; affinity constants
Experimental: An organic solvent (CH3OH, dioxane or DMSO) was added in order to achieve good solubility of all the ligands and metal complexes in the concentrations used in these experiments. Monitoring has shown that all the ligands and metal complexes examined yield results corresponding to the Beer-Lambert Law in the experimental conditions used.
Lc competing chelators were selected to provide a range of stability constants for the metal ion M presenting intervals of approximately one or two log units, as well as to make it possible for each competition experiment to quantify one of the Ls, MLs, Lcc or MLc species with a UV-vis spectrum wavelength without contaminating the three other species (FIG. 7). […] As the concentration [MLs]=x % of C is measured on the UV-visible spectra, the concentrations [Ls]=(1−x) % of C, [MLc]=(1−x) % of C and [Lc]=x % of C can be deduced therefrom and:

[9] = Ls/CuCl2/Lc 1/1/1 at 15 μM, solvent per ligand as in Table 3
[10] = mixture of Ls (15 μM, 1 equivalent) and CuCl2 (1/1, mol/mol)

SMILES	Complex observed by titration with Cu^II (observed L/Cu(II) stoichiometry) [1]	Complex observed by titration with Zn^II (observed L/Zn(II) stoichiometry) [2]	percentage of ZnLs species at equilibrium, competing ligand EDTA [3]	CuCl2 % soluble Aβ [4]	FeCl3 % soluble Aβ [4]	ZnCl2 % soluble Aβ [4]	without metal % soluble Aβ [4]	amount of H2O2, without Aβ1-42 [5]	amount of H2O2, 0.2 μM Aβ1-42 Cu/Aβ = 2 [6]	amount of H2O2, 0.5 μM Aβ1-42 Cu/Aβ = 0.75 [6]	percentage of the CuLs species at equilibrium, competing ligand EDTA [8, 9]	logD at 3 min [7]	other results
Oc1ccc(Cl)c2ccc(CCc3ccc4c(Cl)ccc(O)c4n3)nc12 [Compound 8, 2,2′-(1.2-Ethanediyl)-bis(5-chloro-8-hydroxyquinoline 8)]	LCu^II(1/1)	LZn^II(1/1)	30%	36%	41%	58%	59%	0.66 nmol	0.89 ± 0.09 nmol	0.64 nmol	40%		log D7.4 [7]: 4.2 ± 0.1; number of Lc equivalents making it possible to form 50% of CuLs, Lc = EDTA [8, 10]: 0.65 eq
Oc1c(I)cc(Cl)c2ccc(CCc3ccc4c(Cl)cc(I)c(O)c4n3)nc12 [Compound 9, 2,2′-(1,2-Ethanediyl)-bis(5-chloro-7-iodo-8-hydroxyquinoline)]	LCu^II(1/1)	LZn^II(1/1)	65%	19%	38%	47%	36%	0.66 nmol	0.82 ± 0.08 nmol	0.82 nmol	60%	5.6 ± 0.5	percentage of ZnLs species at equilibrium, competing ligand NTA [3]: 100%; percentage of ZnLs species at equilibrium, competing ligand Trien [3]: 100%; percentage of the CuLs species at equilibrium, competing ligand Dien [8, 9]: 100%; percentage of the CuLs species at equilibrium, competing ligand Tetren [8, 9]: 0%; percentage of the CuLs species at equilibrium, competing ligand Trien [8, 9]: 45%; number of Lc equivalents making it possible to form 50% of CuLs, Lc = Trien [8, 10]: 0.75 eq
Oc1cccc2ccc(CCCCc3ccc4cccc(O)c4n3)nc12 [Compound 10, 2,2′-(1,4-Butanediyl)-bis(8-hydroxyquinoline)]	LCu^II(1/1)	LZn^II(1/1)	45%	42%	43%	43%	52%				45%	3.8 ± 0.1	
c1cnc2c(NCCCNc3cccc4cccnc34)cccc2c1 [Compound 13, N,N′-di-8-quinolinyl-1,3-propanediamine]	LCu^II(1/1)			55 ± 3%	66%	57%	71 ± 2%	0.89 nmol	2.10 nmol	0.70 nmol	25%	2.7 ± 0.1	percentage of the CuLs species at equilibrium, competing ligand EDDA [8, 9]: 65%
COc1ccc2ccc(CCc3ccc4ccc(OC)c(O)c4n3)nc2c1O [Compound 17, 2,2′-(1,2-ethanediyl)-bis[7-(methyloxy)-8-quinolinol]]	LCu^II(1/1)	LZn^II(1/1)	35%	38 ± 4%	38%	42 ± 4%	63 ± 3%		0.69 nmol		55%	3.5 ± 0.1	
